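Protocol summary: plate cells (96-well), add compound at 5 concentrations, incubate 48 h, interpolate endpoints linearly. At the GI50, growth is halved.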 Active and inactive are the calls of the source. No stated cut-off is given here; in the data, active = GI50 up to about 1.1 µM and inactive = higher.
What was measured:
Test in all cases: NCI tumour cell line growth inhibition, 48 h
SF-295 = tested on: SF-295
NCI-H23 = tested on: NCI-H23
TK-10 = tested on: TK-10
U-251 = tested on: U-251
OVCAR-3 = tested on: OVCAR-3
SNB-19 = tested on: SNB-19
Hs-578T = tested on: Hs-578T
HOP-92 = tested on: HOP-92
MDA-MB-231 = tested on: MDA-MB-231
NCI-H460 = tested on: NCI-H460
A549 = tested on: A549
CCRF-CEM = tested on: CCRF-CEM
OVCAR-4 = tested on: OVCAR-4
SK-MEL-28 = tested on: SK-MEL-28
NCI-H226 = tested on: NCI-H226
Malme-3M = tested on: Malme-3M
SW-620 = tested on: SW-620
DU-145 = tested on: DU-145
SK-MEL-2 = tested on: SK-MEL-2
IGROV-1 = tested on: IGROV-1

Row | Structure (SMILES) | GI50 (SF-295) | GI50 (NCI-H23) | GI50 (TK-10) | GI50 (U-251) | GI50 (OVCAR-3) | GI50 (SNB-19) | GI50 (Hs-578T) | GI50 (HOP-92) | GI50 (MDA-MB-231) | GI50 (NCI-H460) | GI50 (A549) | GI50 (CCRF-CEM) | GI50 (OVCAR-4) | GI50 (SK-MEL-28) | GI50 (NCI-H226) | GI50 (Malme-3M) | GI50 (SW-620) | GI50 (DU-145) | GI50 (SK-MEL-2) | GI50 (IGROV-1)
1 | CN(C)CCn1c(=O)c2ccc3c4c(nn3CCN(C)C)c3ccccc3n(c1=O)c24 | 0.0292 µM (active) | 0.449 µM (active) | 0.578 µM (active) | 0.196 µM (active) | 0.431 µM (active) | 0.313 µM (active) | 0.526 µM (active) | 1.87 µM (inactive) | 0.637 µM (active) | < 0.122 µM (active) | 0.134 µM (active) | 0.178 µM (active) | 0.141 µM (active) | 1.85 µM (inactive) | 0.506 µM (active) | 0.887 µM (active) | < 0.138 µM (active) | 0.208 µM (active) | 0.423 µM (active) | 
2 | CCOC(=O)NC(Nc1ccc([N+](=O)[O-])cc1)(C(F)(F)F)C(F)(F)F | > 100 µM (inactive) | > 100 µM (inactive) | 69.8 µM (inactive) | 85.9 µM (inactive) | 65.8 µM (inactive) | > 100 µM (inactive) | 33.9 µM (inactive) | 31.1 µM (inactive) | 94.2 µM (inactive) | 40.9 µM (inactive) | 45 µM (inactive) | > 100 µM (inactive) |  | > 100 µM (inactive) | 40.1 µM (inactive) | > 100 µM (inactive) | > 100 µM (inactive) | > 100 µM (inactive) | > 100 µM (inactive) | 70.5 µM (inactive)
3 | COc1ccccc1N1C(=O)CSC1c1cc(OC)c(OC)c(OC)c1 (stereo not given) | > 30.4 µM (inactive) | > 100 µM (inactive) | > 100 µM (inactive) | 31.1 µM (inactive) | > 46.3 µM (inactive) |  | > 59.7 µM (inactive) | 50.9 µM (inactive) | > 100 µM (inactive) | > 100 µM (inactive) | > 100 µM (inactive) | 13.2 µM (inactive) | > 77.8 µM (inactive) | > 89.9 µM (inactive) | > 50 µM (inactive) | > 22.3 µM (inactive) | 27.5 µM (inactive) | > 100 µM (inactive) | 55.7 µM (inactive) | 33 µM (inactive)
4 | O=C(CCc1ccc(O)c(O)c1)c1ccc(O)c(O)c1O | 18.3 µM (inactive) | 21.4 µM (inactive) | 19 µM (inactive) | 14.8 µM (inactive) |  | 34.4 µM (inactive) | 23.6 µM (inactive) | 22.3 µM (inactive) | 20.3 µM (inactive) | 13 µM (inactive) | 34.2 µM (inactive) | 10.2 µM (inactive) | 19.7 µM (inactive) | 60.7 µM (inactive) | 11.5 µM (inactive) | 28.4 µM (inactive) | 27.4 µM (inactive) | 19.7 µM (inactive) | 58.7 µM (inactive) | 25.1 µM (inactive)
5 | COc1cc2c(c(O)c1OC)C(O)C1CCC(=O)N1C2c1cccc2ccccc12 (stereo not given) | 99.8 µM (inactive) | > 100 µM (inactive) |  | > 100 µM (inactive) | > 100 µM (inactive) | > 100 µM (inactive) | 48 µM (inactive) | > 100 µM (inactive) | 89.5 µM (inactive) | > 100 µM (inactive) | 99.1 µM (inactive) | 81.7 µM (inactive) | 65.6 µM (inactive) | > 100 µM (inactive) | > 100 µM (inactive) | 36.9 µM (inactive) | > 100 µM (inactive) | > 100 µM (inactive) | > 100 µM (inactive) | > 100 µM (inactive)
